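Dose response: 5 concentrations. Exposure: 48 h. Format: 96-well plates. Endpoint: linear interpolation; highest concentration if not reached. TGI: total growth inhibition.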
Legend:
Assay in all cases: NCI anticancer screen, dose series, 48 h
A549 NSCLC = tested on: A549 NSCLC
ACHN renal = tested on: ACHN renal
BT-549 breast = tested on: BT-549 breast
CAKI-1 renal = tested on: CAKI-1 renal
CCRF-CEM leukemia = tested on: CCRF-CEM leukemia
COLO 205 colon = tested on: COLO 205 colon
DU-145 prostate = tested on: DU-145 prostate
EKVX NSCLC = tested on: EKVX NSCLC
HCT-116 colon = tested on: HCT-116 colon
HCT-15 colon = tested on: HCT-15 colon
HL-60(TB) leukemia = tested on: HL-60(TB) leukemia
HOP-62 NSCLC = tested on: HOP-62 NSCLC
HS 578T breast = tested on: HS 578T breast
HT29 colon = tested on: HT29 colon
IGROV1 ovarian = tested on: IGROV1 ovarian
K-562 leukemia = tested on: K-562 leukemia
KM12 colon = tested on: KM12 colon
LOX IMVI melanoma = tested on: LOX IMVI melanoma
M14 melanoma = tested on: M14 melanoma
MALME-3M melanoma = tested on: MALME-3M melanoma
MCF7 breast = tested on: MCF7 breast
MDA-MB-231 breast = tested on: MDA-MB-231 breast
MDA-MB-435 = tested on: MDA-MB-435
MDA-N = tested on: MDA-N
MOLT-4 leukemia = tested on: MOLT-4 leukemia
NCI-H23 lung = tested on: NCI-H23 lung
NCI-H460 lung = tested on: NCI-H460 lung
NCI/ADR-RES ovarian = tested on: NCI/ADR-RES ovarian
OVCAR-3 ovarian = tested on: OVCAR-3 ovarian
OVCAR-4 ovarian = tested on: OVCAR-4 ovarian
OVCAR-5 ovarian = tested on: OVCAR-5 ovarian
OVCAR-8 ovarian = tested on: OVCAR-8 ovarian
PC-3 prostate = tested on: PC-3 prostate
RPMI-8226 leukemia = tested on: RPMI-8226 leukemia
RXF 393 renal = tested on: RXF 393 renal
SF-268 CNS = tested on: SF-268 CNS
SF-295 CNS = tested on: SF-295 CNS
SF-539 CNS = tested on: SF-539 CNS
SK-MEL-28 melanoma = tested on: SK-MEL-28 melanoma
SK-MEL-5 melanoma = tested on: SK-MEL-5 melanoma
SK-OV-3 ovarian = tested on: SK-OV-3 ovarian
SN12C renal = tested on: SN12C renal
SNB-19 CNS = tested on: SNB-19 CNS
SNB-75 CNS = tested on: SNB-75 CNS
SR leukemia = tested on: SR leukemia
SW-620 colon = tested on: SW-620 colon
T-47D breast = tested on: T-47D breast
TK-10 renal = tested on: TK-10 renal
U251 CNS = tested on: U251 CNS
UACC-257 melanoma = tested on: UACC-257 melanoma
UACC-62 melanoma = tested on: UACC-62 melanoma
UO-31 renal = tested on: UO-31 renal
786-0 renal = tested on: 786-0 renal
A498 renal = tested on: A498 renal
HOP-92 NSCLC = tested on: HOP-92 NSCLC
NCI-H226 lung = tested on: NCI-H226 lung
NCI-H522 lung = tested on: NCI-H522 lung
SK-MEL-2 melanoma = tested on: SK-MEL-2 melanoma

SMILES: COc1ccc(-c2c(C(C)=O)c(C)n(C3OC(CO)C(O)C(O)C3O)c(=S)c2C#N)cc1 (stereo not drawn)
- TGI (A549 NSCLC): > 100 µM
- TGI (ACHN renal): > 100 µM
- TGI (BT-549 breast): > 100 µM
- TGI (CAKI-1 renal): > 100 µM
- TGI (CCRF-CEM leukemia): > 100 µM
- TGI (COLO 205 colon): > 100 µM
- TGI (DU-145 prostate): > 100 µM
- TGI (EKVX NSCLC): > 100 µM
- TGI (HCT-116 colon): > 100 µM
- TGI (HCT-15 colon): > 100 µM
- TGI (HL-60(TB) leukemia): > 100 µM
- TGI (HOP-62 NSCLC): > 100 µM
- TGI (HS 578T breast): > 100 µM
- TGI (HT29 colon): > 100 µM
- TGI (IGROV1 ovarian): > 100 µM
- TGI (K-562 leukemia): > 100 µM
- TGI (KM12 colon): > 100 µM
- TGI (LOX IMVI melanoma): > 100 µM
- TGI (M14 melanoma): > 100 µM
- TGI (MALME-3M melanoma): > 100 µM
- TGI (MCF7 breast): > 100 µM
- TGI (MDA-MB-231 breast): > 100 µM
- TGI (MDA-MB-435): > 100 µM
- TGI (MDA-N): > 100 µM
- TGI (MOLT-4 leukemia): > 100 µM
- TGI (NCI-H23 lung): > 100 µM
- TGI (NCI-H460 lung): > 100 µM
- TGI (NCI/ADR-RES ovarian): > 100 µM
- TGI (OVCAR-3 ovarian): > 100 µM
- TGI (OVCAR-4 ovarian): > 100 µM
- TGI (OVCAR-5 ovarian): > 100 µM
- TGI (OVCAR-8 ovarian): > 100 µM
- TGI (PC-3 prostate): > 100 µM
- TGI (RPMI-8226 leukemia): > 100 µM
- TGI (RXF 393 renal): > 100 µM
- TGI (SF-268 CNS): > 100 µM
- TGI (SF-295 CNS): > 100 µM
- TGI (SF-539 CNS): > 100 µM
- TGI (SK-MEL-28 melanoma): > 100 µM
- TGI (SK-MEL-5 melanoma): > 100 µM
- TGI (SK-OV-3 ovarian): > 100 µM
- TGI (SN12C renal): > 100 µM
- TGI (SNB-19 CNS): 33.6 µM
- TGI (SNB-75 CNS): > 100 µM
- TGI (SR leukemia): > 100 µM
- TGI (SW-620 colon): > 100 µM
- TGI (T-47D breast): > 100 µM
- TGI (TK-10 renal): > 100 µM
- TGI (U251 CNS): > 100 µM
- TGI (UACC-257 melanoma): > 100 µM
- TGI (UACC-62 melanoma): > 100 µM
- TGI (UO-31 renal): > 100 µM

SMILES: C=C1c2nc3ccccc3n2C=C(c2ccccc2)N1c1ccc(OC)cc1
- TGI (786-0 renal): 56.8 µM
- TGI (A498 renal): > 100 µM
- TGI (A549 NSCLC): > 100 µM
- TGI (ACHN renal): 28.7 µM
- TGI (BT-549 breast): 38.3 µM
- TGI (CAKI-1 renal): 64 µM
- TGI (CCRF-CEM leukemia): > 100 µM
- TGI (COLO 205 colon): > 100 µM
- TGI (DU-145 prostate): > 100 µM
- TGI (EKVX NSCLC): > 100 µM
- TGI (HCT-116 colon): 59.9 µM
- TGI (HCT-15 colon): 20.3 µM
- TGI (HL-60(TB) leukemia): > 100 µM
- TGI (HOP-92 NSCLC): > 100 µM
- TGI (IGROV1 ovarian): 35.8 µM
- TGI (K-562 leukemia): > 100 µM
- TGI (KM12 colon): 24.3 µM
- TGI (LOX IMVI melanoma): > 100 µM
- TGI (M14 melanoma): 52.6 µM
- TGI (MALME-3M melanoma): 44.8 µM
- TGI (MCF7 breast): 24.1 µM
- TGI (MDA-MB-231 breast): > 100 µM
- TGI (MDA-MB-435): > 100 µM
- TGI (MDA-N): > 100 µM
- TGI (MOLT-4 leukemia): > 100 µM
- TGI (NCI-H226 lung): 35.6 µM
- TGI (NCI-H23 lung): 74.4 µM
- TGI (NCI-H460 lung): 24 µM
- TGI (NCI-H522 lung): 16.1 µM
- TGI (NCI/ADR-RES ovarian): 71.4 µM
- TGI (OVCAR-3 ovarian): > 100 µM
- TGI (OVCAR-4 ovarian): > 100 µM
- TGI (OVCAR-5 ovarian): > 100 µM
- TGI (OVCAR-8 ovarian): 55 µM
- TGI (PC-3 prostate): > 100 µM
- TGI (RPMI-8226 leukemia): > 100 µM
- TGI (RXF 393 renal): 83.5 µM
- TGI (SF-295 CNS): 25.3 µM
- TGI (SF-539 CNS): 26.9 µM
- TGI (SK-MEL-2 melanoma): > 100 µM
- TGI (SK-MEL-5 melanoma): 38.2 µM
- TGI (SK-OV-3 ovarian): > 100 µM
- TGI (SN12C renal): > 100 µM
- TGI (SNB-75 CNS): 21.2 µM
- TGI (SR leukemia): > 100 µM
- TGI (SW-620 colon): > 100 µM
- TGI (TK-10 renal): 26.1 µM
- TGI (U251 CNS): > 100 µM
- TGI (UACC-257 melanoma): > 100 µM
- TGI (UACC-62 melanoma): 62.2 µM
- TGI (UO-31 renal): 26.6 µM

Source: PubChem BioAssay (NCI)
